Source: US20100130569A1, “PROPHYLACTIC OR THERAPEUTIC AGENT FOR POSTERIOR OCULAR DISEASE COMPRISING NON-ERGOT SELECTIVE D2 RECEPTOR AGONIST AS ACTIVE INGREDIENT” (SATEN PHARMACEUTICAL CO., LTD., priority 2007, published 2010)
Structures can show the parent of a compound that is named as a salt. Where two headings read alike, the source gives them in different places.

Tests used:
[1] = tested on: laser-induced choroidal neovascularization; experiment: rat models of krypton laser-induced choroidal neovascularization; assay type: in vivo; conditions: for inhibitory effect on neovascularization in the choroid (in words): rat models of laser-induced choroidal neovascularization, summary of Table 1; for Suppression rate (%) (inhibition rate of choroidal neovascularization incidence): rat, day 7 after photocoagulation, vs vehicle
Procedure: The photocoagulation was performed in a posterior fundus at eight spots per eye sparsely by focusing on the retinal deep layer avoiding thick retinal blood vessels (coagulation conditions: spot size: 100 μm, output: 100 mW, coagulation time: 0.1 sec). After the photocoagulation, the ocular fundus was photographed, and the site where the laser was irradiated was confirmed.
Each of the solutions of Compound A at such concentrations was orally administered once daily at a dose of 0.3 mg/kg or 1 mg/kg starting from the day of photocoagulation surgery for 7 days including the day of surgery. […] Each of the solutions of Compound B at such concentrations was orally administered once daily at a dose of 0.3 mg/kg or 1 mg/kg starting from the day of photocoagulation surgery for 7 days including the day of surgery. On the other hand, Compound C was dissolved in PBS (phosphate buffer) at a concentration of 100 mg/ml, and the resulting solution of Compound C was intraperitoneally administered once daily at a dose of 100 mg/kg starting from the day of photocoagulation surgery for […] the day of surgery.
In the fluorescence fundus photography, a spot where fluorescence leakage was not observed (absence of neovascularization) was judged as negative, and a spot where fluorescence leakage was observed was judged as positive (presence of neovascularization). When there are two photocoagulation sites where a little fluorescence leakage was observed, they were judged as positive (presence of neovascularization). […] The case number in each administration group is 7 to 8.
Choroidal neovascularization incidence rate (%)=(Number of positive spots/total number of photocoagulation sites)×100 [Equation 1]
Inhibition rate (%)=(A0−Ax)/A0×100 [Equation 2]
A0: Choroidal neovascularization incidence rate of vehicle administration group Ax: Choroidal neovascularization incidence rate of drug administration group

[2] = tested on: photoreceptor cell damage caused by light exposure; conditions: for suppressive effect on photoreceptor cell damage (in words): mouse models of light damage, summary of Table 2; for Suppression rate (%) based on a-wave / Suppression rate (%) based on b-wave: mouse, one hour before light exposure, ERG one day after
Procedure: After a 0.5% (w/v) tropicamide-0.5% phenylephrine hydrochloride ophthalmic solution was instilled into the eyes of a mouse to cause mydriasis, light damage was induced in the mouse by light exposure (exposure conditions: illuminance level: 5000 Lux, exposure time: 2 hours) with an apparatus for inducing light damage (Sakami Medical Instrument).
Compound A was dissolved in a 1% (w/v) methyl cellulose solution (prepared by dissolving methyl cellulose in purified water) at a concentration of 0.006, 0.02, 0.06 or 0.2 mg/ml, whereby solutions of Compound A were prepared. Each of the solutions of Compound A was orally administered once at a dose of 0.03, 0.1, 0.3 or 1 mg/kg one hour before light exposure. Compound B was also orally administered in the same manner. That is, Compound B was dissolved in a 1% (w/v) methyl cellulose solution at a concentration of 0.02 or 0.2 mg/ml, whereby solutions of Compound B were prepared. Each of the solutions of Compound B was orally administered once at a dose of 0.1 or 1 mg/kg one hour before light exposure. In a vehicle administration group, a 1% (w/v) methyl cellulose solution was administered in the same manner.
One day after light exposure, each mouse was given general anesthesia by intramuscular administration of 2 ml/kg of a mixed solution of a 5% (w/v) ketamine hydrochloride injectable solution, a 2% xylazine hydrochloride injectable solution and physiological saline (7:1:8), and a 0.5% (w/v) tropicamide-0.5% phenylephrine hydrochloride ophthalmic solution was instilled into the eyes to cause mydriasis. Then, the electroretinogram (ERG) was measured using portable ERG & VEP LE-3000 (Tomey Corporation) (measurement conditions: stimulus luminance: 3000 cd/m^2, stimulus duration: 10 msec, background light luminance: 0 cd/m^2), and a- and b-wave amplitudes were calculated from the obtained waveforms. Then, the suppression rate (%) of the drug to be evaluated against the decrease in a- and b-wave amplitudes (photoreceptor cell damage) caused by light exposure was calculated in accordance with Equations 3 and 4. The case number in each administration group was 6 to 8 per group, and the mean value was used for calculating the suppression rate.
Suppression rate against photoreceptor cell damage (%) based on a-wave=(AAZ−AAY)/(AAX−AAY)×100 [Equation 3]
AAX: a-wave amplitude in normal (untreated) group AAY: a-wave amplitude in group with light exposure and vehicle administration AAZ: a-wave amplitude in group with light exposure and drug administration
Suppression rate against photoreceptor cell damage (%) based on b-wave=(ABZ−ABY)/(ABX−ABY)×100 [Equation 4]
ABX: b-wave amplitude in normal (untreated) group ABY: b-wave amplitude in group with light exposure and vehicle administration ABZ: b-wave amplitude in group with light exposure and drug administration

[3] = tested on: thrombin-induced retinal vascular hyperpermeability
Procedure: A rat was given general anesthesia by intramuscular administration of 1 ml/kg of a mixed solution of a 5% (w/v) ketamine hydrochloride injectable solution and a 2% xylazine hydrochloride injectable solution (7:1), and a 0.5% (w/v) tropicamide-0.5% phenylephrine hydrochloride ophthalmic solution was instilled into the eyes to cause mydriasis. Then, 5 μl of thrombin (600 U/mL) was injected into the vitreous body using a 33-gauge needle so as not to hurt the lens and retina. To a rat in a normal group, PBS (phosphate buffer) was injected instead of thrombin.
In a vehicle administration group, a 1% (w/v) methyl cellulose solution was administered in the same manner.
At 24 hours after intravitreal injection of thrombin, each rat was killed by exsanguination, and then, the eyeball of the rat was enucleated while avoiding contamination with blood. […] The collected vitreous body was appropriately diluted with purified water and the protein concentration was determined by the Bradford method. The thus determined protein concentration in the vitreous body was used as an index of retinal vascular permeability. Then, the suppression rate (%) of the drug to be evaluated against the retinal vascular hyperpermeability induced by thrombin was calculated in accordance with Equation 5. […]

[4] = 0.3 mg/kg orally once daily for 7 days
[5] = 1 mg/kg orally once daily for 7 days

CCCN[C@H]1CCc2nc(N)sc2C1 [Compound A, pramipexole hydrochloride]
inhibitory effect on neovascularization in the choroid (in words) [1]: inhibits choroidal neovascularization
Suppression rate (%) (inhibition rate of choroidal neovascularization incidence) [1, 4]: 60.9%
Suppression rate (%) (inhibition rate of choroidal neovascularization incidence) [1, 5]: 60.9%
suppressive effect on photoreceptor cell damage (in words) [2]: significantly suppresses photoreceptor cell damage
Suppression rate (%) based on a-wave ([2]; 0.03 mg/kg orally once): 41.4%
Suppression rate (%) based on b-wave ([2]; 0.03 mg/kg orally once): 49.2%
Suppression rate (%) based on a-wave ([2]; 0.1 mg/kg orally once): 47.3%
Suppression rate (%) based on b-wave ([2]; 0.1 mg/kg orally once): 44.1%
Suppression rate (%) based on a-wave ([2]; 0.3 mg/kg orally once): 70.0%
Suppression rate (%) based on b-wave ([2]; 0.3 mg/kg orally once): 72.1%
Suppression rate (%) based on a-wave ([2]; 1 mg/kg orally once): 102.0%
Suppression rate (%) based on b-wave ([2]; 1 mg/kg orally once): 92.1%
suppressive effect on retinal vascular hyperpermeability (in words) ([3]; rat models of thrombin-induced retinal vascular hyperpermeability, summary of Table 3): excellent suppressive effect on retinal vascular hyperpermeability
Suppression rate (%) against retinal vascular permeability ([3]; rat, 1 mg/kg orally immediately before and 20 hours after intravitreal thrombin, vitreous protein at 24 hours): 9.9%

CC(C)C[C@H]1C(=O)N2CCC[C@H]2[C@]2(O)O[C@](NC(=O)[C@@H]3C=C4c5cccc6[nH]c(Br)c(c56)C[C@H]4N(C)C3)(C(C)C)C(=O)N12 [Compound B, bromocriptine mesilate]
inhibitory effect on neovascularization in the choroid (in words) [1]: hardly or not at all observed
Suppression rate (%) (inhibition rate of choroidal neovascularization incidence) [1, 4]: −2.1%
Suppression rate (%) (inhibition rate of choroidal neovascularization incidence) [1, 5]: 4.1%
suppressive effect on photoreceptor cell damage (in words) [2]: hardly or not at all observed
Suppression rate (%) based on a-wave ([2]; 0.1 mg/kg orally once): 0.2%
Suppression rate (%) based on b-wave ([2]; 0.1 mg/kg orally once): −3.8%
Suppression rate (%) based on a-wave ([2]; 1 mg/kg orally once): 4.8%
Suppression rate (%) based on b-wave ([2]; 1 mg/kg orally once): 4.9%

Cl.NCCc1ccc(O)c(O)c1 [Compound C, dopamine hydrochloride]
inhibitory effect on neovascularization in the choroid (in words) [1]: hardly or not at all observed
Suppression rate (%) (inhibition rate of choroidal neovascularization incidence) ([1]; 100 mg/kg intraperitoneally once daily): 11.8%
